# According to PubChem BioAssay (NCI):
#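 Results reflect a 48-hour exposure of cells in 96-well plates to compound at five concentrations. GI50 marks 50% less growth. TGI denotes the concentration required for complete inhibition of growth.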
# Tests used:
# Assay in all cases: inhibition of tumour cell growth, NCI panel, 48 h
# [1] = test system: 786-0 renal
# [2] = test system: A498 renal
# [3] = test system: A549 NSCLC
# [4] = test system: ACHN renal
# [5] = test system: BT-549 breast
# [6] = test system: CCRF-CEM leukemia
# [7] = test system: COLO 205 colon
# [8] = test system: DU-145 prostate
# [9] = test system: EKVX NSCLC
# [10] = test system: HCC-2998 colon
# [11] = test system: HCT-116 colon
# [12] = test system: HCT-15 colon
# [13] = test system: HL-60(TB) leukemia
# [14] = test system: HOP-62 NSCLC
# [15] = test system: HOP-92 NSCLC
# [16] = test system: HS 578T breast
# [17] = test system: HT29 colon
# [18] = test system: IGROV1 ovarian
# [19] = test system: K-562 leukemia
# [20] = test system: KM12 colon
# [21] = test system: LOX IMVI melanoma
# [22] = test system: M14 melanoma
# [23] = test system: MALME-3M melanoma
# [24] = test system: MCF7 breast
# [25] = test system: MDA-MB-231 breast
# [26] = test system: MDA-MB-435
# [27] = test system: MOLT-4 leukemia
# [28] = test system: NCI-H226 lung
# [29] = test system: NCI-H23 lung
# [30] = test system: NCI-H460 lung
# [31] = test system: NCI-H522 lung
# [32] = test system: NCI/ADR-RES ovarian
# [33] = test system: OVCAR-3 ovarian
# [34] = test system: OVCAR-4 ovarian
# [35] = test system: OVCAR-5 ovarian
# [36] = test system: OVCAR-8 ovarian
# [37] = test system: PC-3 prostate
# [38] = test system: RPMI-8226 leukemia
# [39] = test system: RXF 393 renal
# [40] = test system: SF-268 CNS
# [41] = test system: SF-295 CNS
# [42] = test system: SF-539 CNS
# [43] = test system: SK-MEL-28 melanoma
# [44] = test system: SK-MEL-5 melanoma
# [45] = test system: SK-OV-3 ovarian
# [46] = test system: SN12C renal
# [47] = test system: SNB-19 CNS
# [48] = test system: SNB-75 CNS
# [49] = test system: SR leukemia
# [50] = test system: SW-620 colon
# [51] = test system: T-47D breast
# [52] = test system: TK-10 renal
# [53] = test system: U251 CNS
# [54] = test system: UACC-257 melanoma
# [55] = test system: UACC-62 melanoma
# [56] = test system: UO-31 renal
compound,measurement,setting,value
COc1cc2c(cc1OCCCCNC(=O)c1cc3ccccc3[nH]1)N=CC1CCCN1C2=O (configuration not stated),GI50,[1],33.5 µM
same,TGI,[1],> 100 µM
same,GI50,[2],22.2 µM
same,TGI,[2],44.4 µM
same,GI50,[3],28.3 µM
same,TGI,[3],> 100 µM
same,GI50,[4],22.6 µM
same,TGI,[4],> 100 µM
same,GI50,[5],8.79 µM
same,TGI,[5],51.1 µM
same,GI50,[6],3.45 µM
same,TGI,[6],> 100 µM
same,GI50,[7],16 µM
same,TGI,[7],> 100 µM
same,GI50,[8],5.31 µM
same,TGI,[8],69.8 µM
same,GI50,[9],17.8 µM
same,TGI,[9],42.2 µM
same,GI50,[10],16.6 µM
same,TGI,[10],45.1 µM
same,GI50,[11],35.9 µM
same,TGI,[11],> 100 µM
same,GI50,[12],16.4 µM
same,TGI,[12],58.2 µM
same,GI50,[13],7.97 µM
same,TGI,[13],> 100 µM
same,GI50,[14],31.5 µM
same,TGI,[14],> 100 µM
same,GI50,[15],12.2 µM
same,TGI,[15],75.4 µM
same,GI50,[16],16.1 µM
same,TGI,[16],71.5 µM
same,GI50,[17],32.6 µM
same,TGI,[17],> 100 µM
same,GI50,[18],18.1 µM
same,TGI,[18],> 100 µM
same,GI50,[19],8.35 µM
same,TGI,[19],> 100 µM
same,GI50,[20],16.9 µM
same,TGI,[20],52.6 µM
same,GI50,[21],8.96 µM
same,TGI,[21],63.8 µM
same,GI50,[22],28.2 µM
same,TGI,[22],> 100 µM
same,GI50,[23],20 µM
same,TGI,[23],47.7 µM
same,GI50,[24],6.82 µM
same,TGI,[24],> 100 µM
same,GI50,[25],14.9 µM
same,TGI,[25],66.8 µM
same,GI50,[26],20.3 µM
same,TGI,[26],74.6 µM
same,GI50,[27],8.72 µM
same,TGI,[27],> 100 µM
same,GI50,[28],30.7 µM
same,TGI,[28],> 100 µM
same,GI50,[29],28.4 µM
same,TGI,[29],> 100 µM
same,GI50,[30],11.9 µM
same,TGI,[30],65.1 µM
same,GI50,[31],4.43 µM
same,TGI,[31],79.9 µM
same,GI50,[32],20.9 µM
same,TGI,[32],> 100 µM
same,GI50,[33],8.59 µM
same,TGI,[33],> 100 µM
same,GI50,[34],28.2 µM
same,TGI,[34],94.4 µM
same,GI50,[35],22.9 µM
same,TGI,[35],> 100 µM
same,GI50,[36],16.7 µM
same,TGI,[36],78.9 µM
same,GI50,[37],22 µM
same,TGI,[37],> 100 µM
same,GI50,[38],5.67 µM
same,TGI,[38],96.3 µM
same,GI50,[39],2.35 µM
same,TGI,[39],6.28 µM
same,GI50,[40],4.4 µM
same,TGI,[40],28 µM
same,GI50,[41],12.7 µM
same,TGI,[41],41.6 µM
same,GI50,[42],8.57 µM
same,TGI,[42],41.7 µM
same,GI50,[43],37.5 µM
same,TGI,[43],> 100 µM
same,GI50,[44],5.65 µM
same,TGI,[44],23.9 µM
same,GI50,[45],29.9 µM
same,TGI,[45],83.6 µM
same,GI50,[46],18.9 µM
same,TGI,[46],44.8 µM
same,GI50,[47],20.2 µM
same,TGI,[47],> 100 µM
same,GI50,[48],33.9 µM
same,TGI,[48],> 100 µM
same,GI50,[49],> 100 µM
same,TGI,[49],> 100 µM
same,GI50,[50],9.84 µM
same,TGI,[50],67.6 µM
same,GI50,[51],21.7 µM
same,TGI,[51],> 100 µM
same,GI50,[52],14.7 µM
same,TGI,[52],33.6 µM
same,GI50,[53],10.5 µM
same,TGI,[53],> 100 µM
same,GI50,[54],17.4 µM
same,TGI,[54],43.8 µM
same,GI50,[55],15.8 µM
same,TGI,[55],40.7 µM
same,GI50,[56],7.16 µM
same,TGI,[56],74.1 µM
